In patent US9440990B2, “1-arylcarbonyl-4-oxy-piperidine compounds useful for the treatment of neurodegenerative diseases” (TAKEDA PHARMACEUTICAL COMPANY LIMITED, priority 2011, dated 2016):

Tests used:
24-HC in the brain = assay: Quantification test of 24-HC in mouse brain after repeated oral administration; format: in vivo; conditions: brain 24-HC; female C57BL/6N mice; 10 mg/kg orally once a day for 3 days; 16 hours after the third administration; relative to control group as 100%
Experimental: Animals used were 6-week-old female C57BL/6N mice (3 mice/group). A test compound was suspended in a 0.5% aqueous methylcellulose [133-14255 WAKO] solution (1 mg/mL). The body weight of the mice was measured, and the solution was forcibly administered orally and repeatedly once a day for 3 days. At 16 hours after the third administration, half of the brain was recovered, and the amount of 24-HC was measured.
The wet weight of the brain was measured, and the brain was homogenized with about 4-fold amount (0.5 mL) of saline. This solution was used as a brain extract. 24-HC in the brain extract was extracted with an acetonitrile solution (98% acetonitrile, 1.98% methanol, 0.02% formic acid), and quantified by HPLC. The average value of 24-HC amount was calculated and the results are shown in relative values with the control group as 100%.

[1] = test system: APP/PS1 double transgenic mouse; assay: Y-maze test using APP/PS1 double transgenic mouse; format: in vivo; conditions: 16 hours after the 13th administration
Experimental: Animals used were 3-month-old female APP/PS1 double transgenic mice (10-15 mice/group). A test compound was suspended in a 0.5% aqueous methylcellulose [133-14255 WAKO] solution (1 mg/mL). The body weight of the mice was measured, and the solution was forcibly administered orally and repeatedly once a day for 14 days. At 16 hours after the 13th administration, spontaneous alternation behavior in Y-maze test was evaluated. Using a particular arm of a Y-shaped test apparatus as the starting point, the frequency of moving to a different arm was counted for 5 min. The first two times of entry were excluded from the total number of entry. In addition, the mice that entered less than 10 times in total were excluded. Movement to an arm different from the arm into which the mouse entered last but one was considered an alternation behavior, and the ratio to the total number of moving was calculated as a spontaneous alternation behavior rate. As comparison subjects, a control group (test compound-non treatment group) and a control group in wild-type mice were used.

O=C(c1ccccc1-c1ccncn1)N1CCC(O)(Cc2ccccc2)CC1 [Example 14, (4-benzyl-4-hydroxypiperidin-1-yl) (2-(pyrimidin-4-yl)phenyl)methanone]
decrease rate (%) at 10 mg/kg (24-HC in the brain): 67%

O=C(c1ccc(F)cc1-c1ccncc1)N1CCC(O)(Cc2ccccn2)CC1 [Example 30, (4-fluoro-2-(pyridin-4-yl)phenyl) (4-hydroxy-4-(pyridin-2-ylmethyl)piperidin-1-yl)methanone]
decrease rate (%) at 10 mg/kg (24-HC in the brain): 87%

O=C(c1cccnc1-c1ccncc1)N1CCC(O)(Cc2ccccc2)CC1 [Example 44, (4-benzyl-4-hydroxypiperidin-1-yl) (2,4′-bipyridin-3-yl)methanone]
Spontaneous alternation behavior rate (%) ([1]; 10 mg/kg orally once a day): 71% | Spontaneous alternation behavior rate (%) ([1]; 30 mg/kg orally once a day): 71%

O=C(c1cccnc1-c1ccncn1)N1CCC(O)(Cc2ccccc2)CC1 [Example 54, (4-benzyl-4-hydroxypiperidin-1-yl) (2-(pyrimidin-4-yl)pyridin-3-yl)methanone]
decrease rate (%) at 10 mg/kg (24-HC in the brain): 64%

Cc1nc(-c2ccncn2)c(C(=O)N2CCC(O)(Cc3ccc(F)cc3)CC2)s1 [Example 62, (4-(4-fluorobenzyl)-4-hydroxypiperidin-1-yl) (2-methyl-4-(pyrimidin-4-yl)-1,3-thiazol-5-yl)methanone]
decrease rate (%) at 10 mg/kg (24-HC in the brain): 71%

O=C(c1cccnc1-c1ccncc1)N1CCC(O)(Cc2ccc(F)cc2)CC1 [Example 67, 2,4′-bipyridin-3-yl (4-(4-fluorobenzyl)-4-hydroxypiperidin-1-yl)methanone]
decrease rate (%) at 10 mg/kg (24-HC in the brain): 43%

N#Cc1ccc(CC2(O)CCN(C(=O)c3cccnc3-c3ccncc3)CC2)cc1 [Example 70, 4-((1-(2,4′-bipyridin-3-ylcarbonyl)-4-hydroxypiperidin-4-yl)methyl)benzonitrile]
decrease rate (%) at 10 mg/kg (24-HC in the brain): 60%

O=C(c1cccnc1-c1ccncc1)N1CCC(O)(Cc2ccc(F)cc2F)CC1 [Example 87, 2,4′-bipyridin-3-yl (4-(2,4-difluorobenzyl)-4-hydroxypiperidin-1-yl)methanone]
decrease rate (%) at 10 mg/kg (24-HC in the brain): 37%

O=C(c1cccnc1-c1ccncn1)N1CCC(O)(Cc2ccc(F)cc2)CC1 [Example 92, (4-(4-fluorobenzyl)-4-hydroxypiperidin-1-yl) (2-(pyrimidin-4-yl)pyridin-3-yl)methanone]
decrease rate (%) at 10 mg/kg (24-HC in the brain): 60%

O=C(c1cccnc1-c1ccncn1)N1CCC(O)(Cc2ccc(F)cc2F)CC1 [Example 105, (4-(2,4-difluorobenzyl)-4-hydroxypiperidin-1-yl) (2-(pyrimidin-4-yl)pyridin-3-yl)methanone]
decrease rate (%) at 10 mg/kg (24-HC in the brain): 40%
